Measurements: patent publication US8912146B2, “Derivatives of APF and methods of use” (University of Maryland, Baltimore, priority 2008, dated 2014)
*1 amine or outer side, *2 acyl side, *3 side chain or, on linkers, in order; H or OH if unused. Where a SMILES comes first, the peptide text is derived from it. [ ]: non-standard residue; d: D form. The star is where a group is joined. ξ: configuration not given here. X1 = CC(=O)NC1C(O[C@@H]2OC(CO)[C@H](O)C(O)C2O)[C@@H](O)C(CO)O[C@@H]1*; X2 = CC(C)(C)OC1C[C@@H](C(=O)[*:2])N([*:1])C1; X4 = CC1(C)OC[C@@H](C(=O)[*:2])N1[*:1]; X3 = O=C([C@@H]1CC(O)CN1[*:1])[*:2]; Thr(3ξ) = CC(O)[C@H](N)C(=O)O; ξY = NC(Cc1ccc(O)cc1)C(=O)O; ξI = CCC(C)C(N)C(=O)O; ξL = CC(C)CC(N)C(=O)O; ξV = CC(C)C(N)C(=O)O; ξA = CC(N)C(=O)O

System: primary normal human bladder epithelial cells
Experiment: 3H-thymidine incorporation (antiproliferative activity) in primary normal bladder epithelial cells
Format: cell-based
Settings: for % of activity: relative to 1 (as-APF) run on the same plate, from IC50, inactive = no significant activity at <25 μM
Procedure: Cell Culture. Cystoscopy was performed under general anesthesia, and 4-mm^2 pieces of transitional epithelium with submucosal bladder tissue were obtained for the growth of primary bladder epithelial cells, as previously described (Keay et al., 1996; 2004). Primary normal bladder epithelial cells were propagated in DMEM-F12 (Media-Tech, Herndon Va.) with 10% heat-inactivated fetal bovine serum (FBS), 1% antibiotic/antimycotic solution, 1% L-glutamine, 0.25 units/mL insulin (all from Sigma, St. Louis, Mo.), and 5 ng/mL hEGF (R&D Systems, Minneapolis, Minn.) at 37° C. in a 5% CO2 atmosphere and characterized by binding of AE-1/AE-3 pancytokeratin antibodies (Signet, Dedham, Mass.).
^3H-Thymidine Incorporation. Cell proliferation was measured by ^3H-thymidine incorporation into explanted normal human bladder epithelial cells, plating 1.5×10^4 cells/well onto a 96 well cell culture plate (VWR 29442-054), in 150 ul/well MEM containing 10% heat inactivated FBS, 1% antibiotic/antimycotic solution, and 1% L-glutamine (all from Sigma), resulting in a doubling time of 48-72 hours, as previously described (Keay et al., 1996; 2004). Each purified lyophilized synthetic APF congener was resuspended in acetonitrile/distilled water (1:1), and applied to the cells in serum-free MEM (containing only L-glutamine and antibiotics/antimycotics); cell controls received acetonitrile/distilled water diluted in serum-free MEM alone. Cells were then incubated at 37° C. in a 5% CO2 atmosphere for 48 hours. The cell contents harvested and methanol-fixed onto glass fiber filter paper, and the amount of radioactivity incorporated determined. Significant inhibition of ^3H-thymidine incorporation was defined as a mean decrease in counts per minute of greater than 2 standard deviations from the mean of control cells for each plate. Inhibition of cell proliferation was determined from a semi-log plot of dose-response for each APF derivative; IC50 was determined as the concentration of each derivative that caused a mean 50% inhibition of thymidine incorporation as compared to the mean of untreated cell controls.
Statistical Analysis. The thymidine incorporation (APF biological activity) assay was performed in triplicate on at least two separate runs, with 1 run simultaneously in triplicate on the same plate. The significance of the difference between mean values for each congener vs. mean values for compound 1 was determined by an analysis of variance.

CC(=O)NC1C(O[C@@H]2OC(CO)[C@H](O)C(O)C2O)[C@@H](O)C(CO)O[C@@H]1OC(C)[C@H](N)C(=O)NC(Cc1ccc(O)cc1)C(=O)N1CCC[C@H]1C(=O)NC(C)C(=O)N[C@@H](C)C(=O)NC(C(=O)N[C@H](C(=O)NC(C(=O)N[C@@H](C)C(=O)O)C(C)C)C(C)C)C(C)C (some centres unmarked) [Derivative 7] (H-[Thr(3ξ)](X1)[ξY]P[ξA]A[ξV]V[ξV]A-OH)
antiproliferative activity compared with as-APF (1), in words: complete inactivation | % of activity: inactive

CC(=O)NC1C(O[C@@H]2OC(CO)[C@H](O)C(O)C2O)[C@@H](O)C(CO)O[C@@H]1OC(C)[C@H](N)C(=O)NC(C(=O)N1CCC[C@H]1C(=O)NC(C)C(=O)N[C@@H](C)C(=O)NC(C(=O)N[C@H](C(=O)NC(C(=O)N[C@@H](CC(C)C)C(=O)O)C(C)C)C(C)C)C(C)C)C(C)C (stereo partly drawn) [Derivative 21] (H-[Thr(3ξ)](X1)[ξV]P[ξA]A[ξV]V[ξV]L-OH)
antiproliferative activity compared with as-APF (1), in words: loss of most or all biological activity | % of activity: 0.01%

CC(=O)NC1C(O[C@@H]2OC(CO)[C@H](O)C(O)C2O)[C@@H](O)C(CO)O[C@@H]1OC(C)[C@H](N)C(=O)NC(C(=O)N1CCC[C@H]1C(=O)NC(C)C(=O)N[C@@H](C)C(=O)NC(C(=O)N[C@H](C(=O)NC(C(=O)O)C(C)C)C(C)C)C(C)C)C(C)C (some centres unmarked) [Derivative 18, Galβ1-3GalNAcα-O-TVPAAVVV] (H-[Thr(3ξ)](X1)[ξV]P[ξA]A[ξV]V[ξV]-OH)
antiproliferative activity compared with as-APF (1), in words: full activity | activity (as-APF8 analogues Galβ1-3GalNAcα-O-TVPAA-R-R-R, Table 7): 100% | % of activity: 100%

CC(=O)NC1C(O[C@@H]2OC(CO)[C@H](O)C(O)C2O)[C@@H](O)C(CO)O[C@@H]1OC(C)[C@H](N)C(=O)NC(C(=O)N1CCC[C@H]1C(=O)NC(C)C(=O)N[C@@H](C)C(=O)NC(C(=O)N[C@H](C(=O)NC(C)C(=O)N[C@H](C(=O)O)C(C)C)C(C)C)C(C)C)C(C)C (some centres unmarked) [Derivative 20] (H-[Thr(3ξ)](X1)[ξV]P[ξA]A[ξV]V[ξA]V-OH)
antiproliferative activity compared with as-APF (1), in words: loss of most or all biological activity | % of activity: inactive

CC(=O)NC1C(O[C@@H]2OC(CO)[C@H](O)C(O)C2O)[C@@H](O)C(CO)O[C@@H]1OC(C)[C@H](N)C(=O)NC(C(=O)N1CC(OC(C)(C)C)C[C@H]1C(=O)NC(C)C(=O)N[C@@H](C)C(=O)NC(C(=O)N[C@H](C(=O)NC(C(=O)N[C@@H](C)C(=O)O)C(C)C)C(C)C)C(C)C)C(C)C (some centres unmarked) [Derivative 13] (H-[Thr(3ξ)](X1)[ξV][X2][ξA]A[ξV]V[ξV]A-OH)
antiproliferative activity compared with as-APF (1), in words: 2-3 orders of magnitude decrease | % of activity: 0.2%

CC(=O)NC1C(O[C@@H]2OC(CO)[C@H](O)C(O)C2O)[C@@H](O)C(CO)O[C@@H]1OC(C)[C@H](N)C(=O)NC(C(=O)N1CCC[C@H]1C(=O)NC(C)C(=O)N[C@@H](C)C(=O)NC(C)C(=O)N[C@@H](C)C(=O)NC(C)C(=O)N[C@@H](C)C(=O)O)C(C)C (some centres unmarked) [Derivative 25] (H-[Thr(3ξ)](X1)[ξV]P[ξA]A[ξA]A[ξA]A-OH)
antiproliferative activity compared with as-APF (1), in words: decreased antiproliferative activity | % of activity: 1%

CC(=O)NC1C(O[C@@H]2OC(CO)[C@H](O)C(O)C2O)[C@@H](O)C(CO)O[C@@H]1OC(C)[C@H](N)C(=O)NC(C(=O)N1CCC[C@H]1C(=O)NC(C)C(=O)N[C@@H](C)C(=O)NCC(=O)NCC(=O)NCC(=O)N[C@@H](C)C(=O)O)C(C)C (some centres unmarked) [Derivative 26] (H-[Thr(3ξ)](X1)[ξV]P[ξA]AGGGA-OH)
antiproliferative activity compared with as-APF (1), in words: complete inactivation of antiproliferative activity | % of activity: 0.01%

CC(=O)NC1C(O[C@@H]2OC(CO)[C@H](O)C(O)C2O)[C@@H](O)C(CO)O[C@@H]1OC(C)[C@H](N)C(=O)NC(C(=O)N1CC(O)C[C@H]1C(=O)NC(C)C(=O)N[C@@H](C)C(=O)NC(C(=O)N[C@H](C(=O)NC(C(=O)N[C@@H](C)C(=O)O)C(C)C)C(C)C)C(C)C)C(C)C (some centres unmarked) [Derivative 12] (H-[Thr(3ξ)](X1)[ξV][X3][ξA]A[ξV]V[ξV]A-OH)
antiproliferative activity compared with as-APF (1), in words: 2-3 orders of magnitude decrease | % of activity: 0.3%

CCC(C)C(NC(=O)[C@H](C)NC(=O)C(C)NC(=O)[C@@H]1CCCN1C(=O)C(NC(=O)[C@@H](N)C(C)O[C@H]1OC(CO)[C@H](O)C(O[C@@H]2OC(CO)[C@H](O)C(O)C2O)C1NC(C)=O)C(C)C)C(=O)N[C@H](C(=O)NC(C(=O)N[C@@H](C)C(=O)O)C(C)CC)C(C)C (some centres unmarked) [Derivative 28] (H-[Thr(3ξ)](X1)[ξV]P[ξA]A[ξI]V[ξI]A-OH)
antiproliferative activity compared with as-APF (1), in words: complete inactivation of antiproliferative activity | % of activity: inactive

CC(=O)NC1C(O[C@@H]2OC(CO)[C@H](O)C(O)C2O)[C@@H](O)C(CO)O[C@@H]1OC(C)[C@H](N)C(=O)NC(C(=O)N1CCC[C@H]1C(=O)NC(C)C(=O)N[C@@H](C)C(=O)NC(C(=O)N[C@H](C(=O)NC(C(=O)N[C@@H](C)C(=O)O)C(C)C)C(C)C)C(C)C)C(C)C (some centres unmarked) [Derivative 36]
antiproliferative activity compared with as-APF (1), in words: complete inactivity | % of activity: inactive

CC(=O)NC1C(O[C@@H]2OC(CO)[C@H](O)C(O)C2O)[C@@H](O)C(CO)O[C@@H]1OC(C)[C@H](N)C(=O)NC(C(=O)N1CCC[C@H]1C(=O)NC(C)C(=O)N[C@H](C(=O)NC(C(=O)N[C@H](C(=O)NC(C(=O)N[C@@H](C)C(=O)O)C(C)C)C(C)C)C(C)C)C(C)C)C(C)C (some centres unmarked) [Derivative 22] (H-[Thr(3ξ)](X1)[ξV]P[ξA]V[ξV]V[ξV]A-OH)
antiproliferative activity compared with as-APF (1), in words: loss of most or all biological activity | % of activity: inactive

CC(=O)NC1C(O[C@@H]2OC(CO)[C@H](O)C(O)C2O)[C@@H](O)C(CO)O[C@@H]1OC(C)[C@H](N)C(=O)NC(C(=O)N1CCC[C@H]1C(=O)NC(C)C(=O)N[C@@H](C)C(=O)NC(C(=O)N[C@H](C(=O)O)C(C)C)C(C)C)C(C)C (some centres unmarked) [Derivative 19, Galβ1-3GalNAcα-O-TVPAAVV] (H-[Thr(3ξ)](X1)[ξV]P[ξA]A[ξV]V-OH)
antiproliferative activity compared with as-APF (1), in words: completely inactive | % of activity: inactive

CC(=O)NC1C(O[C@@H]2OC(CO)[C@H](O)C(O)C2O)[C@@H](O)C(CO)O[C@@H]1OC[C@H](N)C(=O)NC(CC(C)C)C(=O)N1CCC[C@H]1C(=O)NC(C)C(=O)N[C@@H](C)C(=O)NC(C(=O)N[C@H](C(=O)NC(C(=O)N[C@@H](C)C(=O)O)C(C)C)C(C)C)C(C)C (some centres unmarked) [Derivative 2] (H-S(X1)[ξL]P[ξA]A[ξV]V[ξV]A-OH)
antiproliferative activity compared with as-APF (1), in words: two orders of magnitude loss of potency | % of activity: 1%

CC(=O)NC1C(O[C@@H]2OC(CO)[C@H](O)C(O)C2O)[C@@H](O)C(CO)O[C@@H]1OC(C)[C@H](N)C(=O)NC(C(=O)N1CCC[C@H]1C(=O)NC(C)C(=O)N[C@@H](C)C(=O)NC(C(=O)NC(C(=O)NC(C(=O)N[C@@H](C)C(=O)O)C(C)C)C(C)C)C(C)C)C(C)C (some centres unmarked) [Derivative 27]
antiproliferative activity compared with as-APF (1), in words: complete inactivation of antiproliferative activity | % of activity: inactive

CC(=O)NC1C(O[C@@H]2OC(CO)[C@H](O)C(O)C2O)[C@@H](O)C(CO)O[C@@H]1OC(C)[C@H](N)C(=O)NC(C(=O)N1[C@H](C(=O)NC(C)C(=O)N[C@@H](C)C(=O)NC(C(=O)N[C@H](C(=O)NC(C(=O)N[C@@H](C)C(=O)O)C(C)C)C(C)C)C(C)C)COC1(C)C)C(C)C (some centres unmarked) [Derivative 9] (H-[Thr(3ξ)](X1)[ξV][X4][ξA]A[ξV]V[ξV]A-OH)
antiproliferative activity compared with as-APF (1), in words: completely abolished activity | % of activity: inactive

CC(=O)NC1C(O[C@@H]2OC(CO)[C@H](O)C(O)C2O)[C@@H](O)C(CO)O[C@@H]1OC(C)[C@H](N)C(=O)NC(C(=O)N1CCC[C@H]1C(=O)NC(C)C(=O)NCC(=O)NC(C(=O)N[C@H](C(=O)NC(C(=O)NCC(=O)O)C(C)C)C(C)C)C(C)C)C(C)C (some centres unmarked) [Derivative 24] (H-[Thr(3ξ)](X1)[ξV]P[ξA]G[ξV]V[ξV]G-OH)
antiproliferative activity compared with as-APF (1), in words: complete inactivation | % of activity: inactive

CC(=O)NC1C(O[C@@H]2OC(CO)[C@H](O)C(O)C2O)[C@@H](O)C(CO)O[C@@H]1OC(C)[C@H](NC(=O)C(N)Cc1ccc(O)cc1)C(=O)NC(CC(C)C)C(=O)N1CCC[C@H]1C(=O)NC(C)C(=O)N[C@@H](C)C(=O)NC(C(=O)N[C@H](C(=O)NC(C(=O)N[C@@H](C)C(=O)O)C(C)C)C(C)C)C(C)C (some centres unmarked) [Derivative 6] (H-[ξY][Thr(3ξ)](X1)[ξL]P[ξA]A[ξV]V[ξV]A-OH)
antiproliferative activity compared with as-APF (1), in words: approximately 2 orders of magnitude loss of potency | % of activity: 1%
